The supplement of paper PMC10307832

Legend:
Assay in all cases: relative viability (nuclei count vs DMSO), 5 days (fraction); higher = more cells survive
[1] = compound: COc1cc([C@@H]2c3cc4c(cc3[C@@H](O[C@@H]3O[C@@H]5CO[C@@H](C)O[C@H]5[C@H](O)[C@H]3O)[C@H]3COC(=O)[C@H]23)OCO4)cc(OC)c1O [Etoposide] + Nc1ncn([C@H]2C[C@H](O)[C@@H](CO)O2)c(=O)n1 [Decitabine] (partner 2 µM)
Outline: (§1)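 Medians of duplicate plates are given as relative viability. That measure is the nuclei count in treated wells divided by the count in vehicle wells. Counts were taken on 4× images of lung cancer cell lines in 1536-well plates, 5 days after pin-tool dosing the day after seeding with one drug alone or a fixed anchor-drug dose plus five library-drug doses (not always all listed) in √10 steps.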

[2] = compound: CC1=C(N=C(N=C1N)[C@H](CC(=O)N)NC[C@@H](C(=O)N)N)C(=O)N[C@@H]([C@H](C2=CN=CN2)OC3C(C(C(C(O3)CO)O)O)OC4C(C(C(C(O4)CO)O)OC(=O)N)O)C(=O)N[C@H](C)[C@H]([C@H](C)C(=O)N[C@@H]([C@@H](C)O)C(=O)NCCC5=NC(=CS5)C6=NC(=CS6)C(=O)NCCC[S+](C)C)O [Bleomycin] + Nc1ncn([C@H]2C[C@H](O)[C@@H](CO)O2)c(=O)n1 [Decitabine] (partner 2 µM); conditions: main component drawn
Outline: as §1

[3] = compound: COc1cc([C@@H]2c3cc4c(cc3[C@@H](O[C@@H]3O[C@@H]5CO[C@@H](C)O[C@H]5[C@H](O)[C@H]3O)[C@H]3COC(=O)[C@H]23)OCO4)cc(OC)c1O [Etoposide] + CC1(C)CCC(c2ccc(Cl)cc2)=C(CN2CCN(c3ccc(C(=O)NS(=O)(=O)c4ccc(N[C@H](CCN5CCOCC5)CSc5ccccc5)c(S(=O)(=O)C(F)(F)F)c4)cc3)CC2)C1 [Navitoclax] (partner 0.5 µM)
Outline: as §1

[4] = compound: CC1=C(N=C(N=C1N)[C@H](CC(=O)N)NC[C@@H](C(=O)N)N)C(=O)N[C@@H]([C@H](C2=CN=CN2)OC3C(C(C(C(O3)CO)O)O)OC4C(C(C(C(O4)CO)O)OC(=O)N)O)C(=O)N[C@H](C)[C@H]([C@H](C)C(=O)N[C@@H]([C@@H](C)O)C(=O)NCCC5=NC(=CS5)C6=NC(=CS6)C(=O)NCCC[S+](C)C)O [Bleomycin] + COc1cc2c(Oc3ccc(NC(=O)C4(C(=O)Nc5ccc(F)cc5)CC4)cc3F)ccnc2cc1OCCCN1CCOCC1 [Foretinib] (partner 0.25 µM); conditions: main component drawn
Outline: as §1

Cell Line	relative viability ([1]; first compound 0.01 µM)	relative viability ([1]; first compound 0.03162 µM)	relative viability ([1]; first compound 0.1 µM)	relative viability ([1]; first compound 0.3162 µM)	relative viability ([1]; first compound 1 µM)	relative viability ([2]; first compound 0.01 µM)	relative viability ([2]; first compound 0.03162 µM)	relative viability ([2]; first compound 0.1 µM)	relative viability ([2]; first compound 0.3162 µM)	relative viability ([2]; first compound 1 µM)	relative viability ([3]; first compound 0.01 µM)	relative viability ([3]; first compound 0.03162 µM)	relative viability ([3]; first compound 0.1 µM)	relative viability ([3]; first compound 0.3162 µM)	relative viability ([3]; first compound 1 µM)	relative viability ([4]; first compound 0.01 µM)	relative viability ([4]; first compound 0.03162 µM)	relative viability ([4]; first compound 0.1 µM)	relative viability ([4]; first compound 0.3162 µM)	relative viability ([4]; first compound 1 µM)
NCI-H647	0.363	0.369	0.31	0.193	0.175	0.289	0.183	0.152	0.0939	0.0806	0.936	1.18	0.961	0.261	0.241	0.482	0.308	0.212	0.0979	0.073
A-427	0.54	0.549	0.477	0.354	0.275	0.429	0.495	0.406	0.29	0.266	0.963	0.937	0.525	0.53	0.256	0.862	0.873	0.935	0.481	0.284
EMC-BAC-2	0.938	0.893	0.606	0.323	0.298	–	0.712	0.538	0.342	0.328	1.08	1.05	0.83	0.297	0.161	0.859	0.74	0.63	0.35	0.247
NCI-H460	0.432	0.454	0.319	0.105	0.0405	0.301	0.228	0.279	0.0468	0.0408	0.93	0.796	0.6	0.0627	0.0154	0.68	0.651	0.283	0.0633	0.0375
LCLC-103H	0.763	0.835	0.766	0.71	0.599	0.676	0.68	0.677	0.721	0.537	–	–	–	–	–	0.683	0.765	0.677	0.382	0.343
HCC-827	0.294	0.328	0.315	0.205	0.182	0.304	–	0.287	0.249	0.198	1.03	0.985	0.956	0.613	0.331	0.955	1.22	0.913	0.558	0.266
NCI-H1355	0.362	0.384	0.363	0.279	0.287	0.319	0.341	0.371	0.314	0.2	0.881	1.17	0.479	0.684	0.323	0.931	0.971	0.937	0.52	0.348
NCI-H1734	0.517	0.513	0.454	0.379	0.314	0.453	0.477	0.414	0.272	0.2	0.761	0.9	0.665	0.598	0.266	0.773	0.564	0.631	0.344	0.228
HARA	0.556	0.578	0.573	0.399	0.301	0.513	0.534	0.473	0.313	0.335	1.11	1.16	1.17	0.864	0.337	0.794	0.793	0.777	0.397	0.379
HCC-15	0.667	0.665	0.668	0.286	0.174	0.591	0.639	0.543	0.336	0.276	0.652	0.647	0.626	0.31	0.125	0.869	0.913	0.752	0.33	0.227
LCLC-97TM1	0.253	0.222	0.302	0.129	0.11	0.2	0.156	0.168	0.158	0.0988	–	0.62	0.327	0.178	0.141	0.912	0.809	0.628	0.274	0.176
SK-LU-1	0.561	0.604	0.513	0.306	0.252	0.598	0.631	0.655	0.554	0.492	0.633	0.975	0.468	0.144	0.166	0.704	0.874	0.815	0.461	0.365
NCI-H1651	0.612	0.688	0.442	0.241	0.128	0.619	0.461	0.477	0.333	0.192	0.866	0.881	0.808	0.242	0.154	0.716	0.499	0.496	0.31	0.213
NCI-H2170	0.463	0.449	–	0.386	0.342	0.437	0.42	0.39	0.32	0.271	0.625	0.728	–	0.525	0.399	0.992	0.98	0.736	0.855	0.829
NCI-H2023	0.246	0.247	0.204	0.146	0.109	0.195	0.195	0.152	0.113	0.0909	0.99	0.964	0.929	0.423	0.347	0.717	0.641	0.522	0.245	0.162
LC-2-ad	0.778	0.682	0.922	0.741	0.566	0.72	0.737	0.541	0.309	0.292	0.586	0.446	0.405	0.276	0.183	0.754	0.729	0.483	0.264	0.281
NCI-H1703	–	–	–	–	–	–	–	–	–	–	1.04	1.12	0.575	0.527	0.307	0.298	0.325	0.306	0.283	0.275
NCI-H1437	0.537	0.632	0.568	0.441	0.332	0.472	0.527	0.518	0.428	0.377	1.11	1.01	1.01	0.524	0.296	1.18	1.12	0.959	0.695	0.619
SW 1573	0.434	0.5	0.243	0.159	0.0836	0.368	0.442	0.311	0.19	0.197	0.926	0.946	0.639	0.209	0.0658	0.811	0.813	0.748	0.468	0.308

Cell Line	relative viability ([1]; first compound 0.01 µM)	relative viability ([1]; first compound 0.03162 µM)	relative viability ([1]; first compound 0.1 µM)	relative viability ([1]; first compound 0.3162 µM)	relative viability ([1]; first compound 1 µM)	relative viability ([2]; first compound 0.01 µM)	relative viability ([2]; first compound 0.03162 µM)	relative viability ([2]; first compound 0.1 µM)	relative viability ([2]; first compound 0.3162 µM)	relative viability ([2]; first compound 1 µM)	relative viability ([3]; first compound 0.01 µM)	relative viability ([3]; first compound 0.03162 µM)	relative viability ([3]; first compound 0.1 µM)	relative viability ([3]; first compound 0.3162 µM)	relative viability ([3]; first compound 1 µM)	relative viability ([4]; first compound 0.01 µM)	relative viability ([4]; first compound 0.03162 µM)	relative viability ([4]; first compound 0.1 µM)	relative viability ([4]; first compound 0.3162 µM)	relative viability ([4]; first compound 1 µM)
Calu-6	–	–	–	–	–	–	–	–	–	–	0.883	0.722	0.828	0.418	0.213	0.646	0.549	0.29	0.132	0.107
NCI-H1792	0.515	0.741	–	0.5	0.331	0.521	0.649	0.558	0.3	0.252	0.716	0.59	0.507	0.567	0.394	–	–	–	–	–
NCI-H650	0.318	0.339	0.278	0.205	0.174	0.305	0.318	0.299	0.2	0.175	–	–	–	–	–	0.837	0.915	0.823	0.564	0.288
EBC-1	–	–	–	–	–	–	–	–	–	–	0.319	0.41	0.254	0.378	0.225	0.104	0.106	0.107	0.106	0.105
NCI-H1623	–	–	–	–	–	–	–	–	–	–	–	–	–	–	–	0.758	0.942	0.774	0.646	0.418
NCI-H2342	0.599	0.677	0.477	0.373	0.368	0.692	0.624	0.619	0.547	0.556	–	–	–	–	–	0.874	0.996	1.03	0.698	0.918
SW 900	0.443	0.428	0.361	0.297	0.269	0.377	0.406	0.334	0.234	0.244	–	–	–	–	–	0.629	0.386	0.465	0.211	0.161
NCI-H1563	–	–	–	–	–	–	–	–	–	–	–	–	–	–	–	0.838	0.803	0.734	0.647	0.61
NCI-H1299	–	–	–	–	–	–	–	–	–	–	1.06	1.02	1.05	0.946	0.785	1.07	1.08	0.934	0.497	0.277
NCI-H2228	–	–	–	–	–	–	–	–	–	–	0.842	0.934	0.849	0.473	0.138	0.853	0.741	0.695	0.274	0.191
NCI-H358	0.229	0.212	0.155	0.136	0.103	0.198	0.271	0.189	0.172	0.152	–	–	–	–	–	0.606	0.591	0.556	0.351	0.254
NCI-H661	0.558	0.671	0.477	0.46	0.343	0.552	0.572	0.434	0.37	0.315	–	–	–	–	–	0.896	0.924	0.689	0.393	0.357
NCI-H522	0.702	0.655	0.502	0.872	0.571	0.736	0.777	0.608	0.405	0.399	–	–	–	–	–	–	–	–	–	–
CAL-12T	–	–	–	–	–	–	–	–	–	–	1.13	1.26	1.17	0.752	0.791	0.993	0.706	0.579	0.199	0.174
NCI-H1648	–	0.513	0.454	0.466	0.341	0.412	0.387	0.466	0.467	0.334	–	–	–	–	–	–	–	–	–	–
IA-LM	–	–	–	–	–	–	–	–	–	–	0.595	0.742	0.731	0.616	0.431	1.09	0.96	0.899	0.56	0.241
ABC-1	1.08	0.939	0.62	0.619	0.52	0.911	0.837	1.01	0.803	0.591	–	–	–	–	–	0.773	0.9	0.579	0.346	0.24
HCC-44	1	1.06	0.984	0.905	0.55	0.773	0.795	0.693	0.396	0.407	0.845	1.05	1.1	0.882	0.496	–	–	–	–	–
